Results reported in US20100226992A1 (ALCON RESEARCH, LTD., priority 2009, published 2010).

Test system: FGFR
Experiment: Kinase inhibition, cell-free enzymatic assay
Type: biochemical
Settings: 1 mM ATP

IC50: > 12.5 µM
Structure (SMILES): Cc1ccc(F)c(NC(=O)Nc2ccc(-c3cccc4[nH]nc(N)c34)cc2)c1 [RTK Inhibitor, N-[4-(3-amino-1H-indazol-4-yl)phenyl]-N′-(2-fluoro-5-methylphenyl)urea]
